Here are results for ten molecules from patent US5624959A, “Naphthyloxyacetic acid” (Ono Pharmaceutical Co., Ltd., priority 1993, dated 1997).

Molecules are shown by their SMILES.

The target in the assay is T1, prostanoide receptor subtype (mouse EP3a) (Mus musculus, UniProt P30557).
T1 construct: expressed in transfected cells
T1 sequence (P30557 1-365): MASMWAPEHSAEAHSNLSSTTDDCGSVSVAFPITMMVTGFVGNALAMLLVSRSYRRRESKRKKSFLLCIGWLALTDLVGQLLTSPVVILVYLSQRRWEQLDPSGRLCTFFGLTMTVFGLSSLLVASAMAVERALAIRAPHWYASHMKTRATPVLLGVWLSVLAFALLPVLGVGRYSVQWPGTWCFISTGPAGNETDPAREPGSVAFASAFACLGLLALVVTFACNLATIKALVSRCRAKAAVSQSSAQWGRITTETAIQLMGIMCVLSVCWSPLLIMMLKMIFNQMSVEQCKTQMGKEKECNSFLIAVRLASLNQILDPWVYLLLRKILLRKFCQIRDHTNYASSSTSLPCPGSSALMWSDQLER
As to the kind of experiment: Binding assay using expression cell of prostanoide receptor subtype ([3H]PGE2 competition, membrane fraction). To be noted: mouse EP3a membrane fraction (0.5 mg/ml); [3H]-PGE2 2.5 nM; pH 6.0; 1 hour at room temperature; Ki=IC50/(1+([c]/Kd)); read-out: Ki (dissociation constant). The protocol: (i) Binding assay using expression cell of prostanoide receptor subtype
The preparation of membrane fraction was carried out according to the method of Sugimoto et al [J. Biol. Chem. 267, 6463-6466(1992)], using prostanoide receptor subtype (mouse EP3a).
The standard assay mixture containing a membrane fraction (0.5 mg/ml), [^3 H]PGE2 in a final volume of […] was incubated for 1 hour at room temperature. The reaction was terminated by the addition of 3 ml of ice-cooled buffer. The mixture was rapidly filtered through a Whatman GF/B glass filter. The radioactivity associated with the filter was measured in ACS II (Amarsham) by liquid scintillation counting.
Kd and Bmax values were determined from Scatchard plots [Ann. N.Y. Acad. Sci., 51,660(1949)]. Non-specific binding was calculated as the bond in the presence of an excess (2.5 mM) of unlabeled PGE2. In the experiment for competition of specific [^3 H]-PGE2 binding by the compounds of the present invention, [^3 H]-PGE2 was added at a concentration of 2.5 nM and the compounds of the present invention were at a concentration of 1 mM.
The following buffer was used in all reactions. Buffer: 10 mM potassium phosphate (pH 6.0), 1 mM EDTA, 10 mM MgCl2, 0.1 M NaCl
The dissociation constant (Ki) of each compound was calculated by the following equation.
Turning to `O=C(O)COc1cccc2c(CCNS(=O)(=O)CCc3ccccc3)cccc12` [Example 3(w), 5-[2-[(2-phenylethyl)sulfonylamino]ethyl]naphthyloxyacetic acid], the Ki was determined as 28 nM.
Under `O=C(O)COc1cccc2cc(CCNS(=O)(=O)/C=C/c3ccccc3)ccc12` [Example 3(h), 6-[2-[(2-phenylvinyl)sulfonylamino]ethyl]naphthyloxyacetic acid] stands 37 nM.
The result for `O=C(O)COc1cccc2c1CCCC2NS(=O)(=O)C=C(c1ccccc1)c1ccccc1` (stereo not shown) [Example 3(p), 5-[(2,2-diphenylvinyl)sulfonylamino]-5,6,7,8-tetrahydronaphthyloxyacetic acid] reads 36 nM.
As for `O=C(O)COc1cccc2c3c(ccc12)CCC(NS(=O)(=O)/C=C/c1ccccc1)C3` (stereo not shown) [Example 3(ff), 6-[(2-phenylvinyl)sulfonylamino]-5,6,7,8-tetrahydrophenanthrene-1-yl-oxyacetic acid], the Ki is 2.5 nM.
The result for `O=C(O)COc1cccc2c(NS(=O)(=O)C=C(c3ccccc3)c3ccccc3)cccc12` [Example 3(i), 5-[(2,2-diphenylvinyl)sulfonylamino]naphthyloxyacetic acid] reads 37 nM; that for `O=C(O)COc1cccc2c(CCNS(=O)(=O)/C=C/c3ccccc3)cccc12` [Example 3(g)], 7 nM; that for `O=C(O)COc1cccc2c1CCCC2NS(=O)(=O)c1ccc2ccccc2c1` (stereo not shown) [Example 3(q), 5-(naphth-2-yl-sulfonylamino)-5,6,7,8-tetrahydronaphthyloxyacetic acid], 320 nM.
Under `O=C(O)COc1cccc2c(CCS(=O)(=O)NCC(c3ccccc3)c3ccccc3)cccc12` [Example 6(f)] stands 7.5 nM.
Under `O=C(O)COc1cccc2c1CCC=C2CCNS(=O)(=O)/C=C/c1ccccc1` [Example 3(aa), 5-[2-[(2-phenylvinyl)sulfonylamino]ethyl]-7,8-dihydronaphthyloxyacetic acid] stands 7.9 nM; under `O=C(O)COc1cccc2c(NS(=O)(=O)CCc3ccccc3)cccc12` [Example 3(v), 5-[(2-phenylethyl)sulfonylamino]naphthyloxyacetic acid], 17 nM.

One may read the Ki as a measure of affinity in units of concentration, obtained from inhibition or displacement.
